This is an account of results in publication PMC8786932, “Bicyclic azetidines target acute and chronic stages of Toxoplasma gondii by inhibiting parasite phenylalanyl t-RNA synthetase” (Nature Communications, 2022).

Test [1] concerns the target T. gondii tachyzoites (type II ME49-FLuc). Kind of test: Luciferase-based tachyzoite growth assay. The class given is cell-based, Toxoplasma gondii. Further details: EC50 log inhib vs normalized response: unit: µM. Conditions: for EC50 log inhib vs normalized response: Fig 1A rank order, T. gondii growth. On the procedure: All assays were carried out in a 96-well plate format containing confluent HFF monolayers to support parasite growth. To avoid edge effects, only the inner 60 wells of each plate were used. All compounds described were provided by the Broad Institute as 10 mM stocks in 100% DMSO and stored at −80 °C prior to use. Pyrimethamine (Sigma-Aldrich) was prepared as 5 mM stock in 100% DMSO and stored at −20 °C prior to use.
All statistical analyses were conducted using Prism 9 (GraphPad Software, Inc.). Dose–response inhibition curves for parasite and host cell toxicity screens (EC50 values) were generated using (Log(inhibitor) vs. normalized response—Variable slope) function. […] For multiple comparisons, two-way ANOVA analysis function using either Sidák’s multiple comparisons test or Dunnett’s multiple comparisons test was applied as indicated.

Test [2] deals with N. caninum expressing lacZ. Kind of test: Neospora caninum β-galactosidase assay. Type of test: cell-based. Here is the method:
β-galactosidase assays were conducted using tissue culture grade 96-well plates (TPP) containing confluent monolayers of HFF cells. A 10-point compound dilution series (2-fold) for each compound was generated as described above (2X concentration, 0.1% final DMSO). Growth of the N. caninum strain expressing lacZ was monitoring using a β-galactosidase (β-gal) assay as described in[21] with the following modifications. N. caninum lacZ expressing parasites (1 × 10^3) were added (in 100 μL volume) into 96-well plates containing HFF monolayers to reach final compound concentration (5.0 μM to 0.002 μM in 200 μL total volume). Plates were incubated at 37 °C, 5% CO2 for 72 h prior to completing β-gal assay as previously described[23],[27],[51]. Briefly, parasite containing monolayers were lysed with 1.0% Triton X-100 and β-gal activity determined by adding 1 mM chlorophenolred-β-D-galactopyranoside followed by monitoring absorption at 570 nm on a Cytation 3 multi-mode imager (BioTek), as described.

In test [3] the test system is blood-stage P. falciparum. Conditions: Fig 2A Tg_Pf_Cp EC50s; previously reported values, reference not visible in the shown part; cited from earlier work.
For a further test, the system named is C. parvum. Conditions: Fig 2A Tg_Pf_Cp EC50s; previously reported values, reference not visible in the shown part; cited from earlier work.
Test [4] deals with ex vivo T. gondii ME49-FLuc bradyzoites from tissue cysts of chronically infected mice. Kind of test: Ex vivo bradyzoite treatment assay (plaque assay). The class given is cell-based, Toxoplasma gondii. Conditions: Fig 5H top 4, replicates, listed as Pyr. On the procedure: The brains from CBA/J mice chronically infected with the ME49-FLuc strain were harvested, homogenized, and tissue cysts isolated on Percoll gradients, as described previously[9],[27]. Following isolation, purified tissue cysts were treated with acid-pepsin solution ([…] sodium chloride (NaCl), 60 mM hydrochloric acid (HCl) and freshly made pepsin (0.1 mg/mL in 1xPBS) for 10 min at 37 °C. Following acid-pepsin treatment and addition of neutralization buffer (94 mM sodium carbonate (Na2CO3), liberated bradyzoites were equally distributed into 6-well plates with 5 mL culture media containing compounds or vehicle control (0.1–0.2% DMSO final concentration). Plates were incubated undisturbed for 12–14 days followed by fixation in 100% ethanol (ETOH) for 5 min at RT, rinsing with tap water, staining in 0.1% crystal violet solution for 10 min at RT, rinsing in water and air drying. Plaques were quantified on a Zeiss AxioObserver microscope equipped with a ×2.5 objective (Department of Molecular Microbiology Imaging Facility at the Washington University School of Medicine).

Test [5] deals with T. gondii ME49-FLuc chronic infection. The class given is in vivo, Ifngr1-/- mice. Conditions: mouse, in vivo. Here is the method: (§1) Ifngr1^−/− (B6.129S7-Ifngr1 ^tm1Agt /J) and CBA/J mice were purchased from Jackson Laboratory and bred locally at Washington University. Animal studies were conducted according to the U.S. Public Health Service policy on human care and use of laboratory animals. Animals were maintained in facilities approved by the Association for Assessment and Accreditation of Laboratory Animal Care. Studies were approved by Division of Comparative Medicine, Washington University. […] Animals were maintained on a 12:12 light cycle, room temperature maintained at 70℉ ± 2℉, and room humidity maintained at 50% ± 20%.
(§2) Testing of compounds to prevent reactivation of chronic infection was […] to test the efficacy of PheRS inhibitors against chronic infection. In both cases, male and female C57BL/6 Ifngr1^−/− mice were infected by oral gavage with 5 cysts of the ME49-Fluc strain isolated from chronically infected CBA/J mice. […] Animals were monitored for survival and weight loss for 30 days post-treatment.

For test [6], the system named is T. gondii ME49-FLuc tissue cysts. The class given is in vivo, Ifngr1-/- mice. Conditions: mouse, in vivo. On the procedure: as §1, §2
The mark [7] stands for this setting: Fig S2 source data, read-out: T. gondii (EC50, Fig S2 source data).
Where [8] appears, read: Table S1, ME49-FLuc tachyzoites, read-out: T. gondii EC50.
Where [9] appears, read: Fig S2 source data, read-out: N. caninum (EC50, Fig S2 source data).
The mark [10] stands for this setting: Table S3, 72 h, lacZ, read-out: N. caninum EC50.
The mark [11] stands for this setting: Toxoplasma gondii, Table S1, ME49-FLuc tachyzoites, read-out: T. gondii EC50.
[12] abbreviates: Fig 2A Tg_Pf_Cp EC50s, read-out: EC50 T. gondii.
[13] abbreviates: Toxoplasma gondii, Fig. 2b, stereoisomers of BRD3444, mean of two biological replicates, read-out: Tg EC50.

pEC50: −log10 of the molar value. Several values for one entry are separate records, joined by “and”; a condition that tells them apart may be missing. Identical values can stand only once. Like-named read-outs stand apart in the source and are kept apart here.

Usually pEC50 stands for the negative decadic logarithm of the EC50, by convention in mol/L. Consider `COc1ccc(NC(=O)N2CCCCCN3[C@H](CO)[C@H](c4ccc(C#Cc5ccccc5)cc4)[C@@H]3C2)cc1` [BRD0185], for which the “EC50 log inhib vs normalized response” value in test [1] was 0.1693. Also, the negative-log EC50 (pEC50) in test [1] (setting [7]) was 6.77; in test [1] (setting [8]), 6.77; in test [2] (setting [9]), 6.81; in test [2] (setting [10]), 6.81; in test [3], 7.06; with C. parvum it was 7.48.

`COc1ccc(NC(=O)N2CCCCN3[C@@H](CO)[C@@H](c4ccc(C#Cc5ccccc5)cc4)[C@@H]3C2)cc1` [BRD2430]: the “EC50 log inhib vs normalized response” value in test [1] amounted to 1.548. For the same compound, the pEC50 in test [1] (setting [11]) is 5.81.

In the case of `COc1ccc(NC(=O)N2CCCCN3[C@H](CO)[C@@H](c4ccc(C#Cc5ccccc5)cc4)[C@@H]3C2)cc1` [BRD2574], the “EC50 log inhib vs normalized response” value in test [1] is given as 1.487. For the same compound, in test [1] (setting [11]), the pEC50 was 5.83.

On to `COc1ccc(NC(=O)N2CCCCN3[C@H](CO)[C@H](c4ccc(C#Cc5ccccc5)cc4)[C@]3(CO)C2)cc1` [BRD2936], for which, in test [1], the “EC50 log inhib vs normalized response” value is recorded as 1.687. The pEC50 was 5.77 in test [1] (setting [12]), 5.73 in test [3] and 5.97 in the test on C. parvum.

For `COc1ccc(NC(=O)N2CCCCN3[C@H](CO)[C@H](c4ccc(C#Cc5ccccc5)cc4)[C@H]3C2)cc1` [BRD3182], in test [1], the “EC50 log inhib vs normalized response” value is given as 1.697. The pEC50 in test [1] (setting [11]) is 5.77.

Turning to `COc1ccc(NC(=O)N2CCCCN3[C@H](C2)[C@@H](c2ccc(C#Cc4ccccc4)cc2)[C@@H]3CO)cc1` [BRD3801], the “EC50 log inhib vs normalized response” value in test [1] stood at 4.096. Further, the pEC50 in test [1] (setting [11]) is 5.39.

For the compound `COc1ccc(NC(=O)N2CCCCN3C[C@H](c4ccc(C#Cc5ccccc5)cc4)[C@@H]3C2)cc1` [BRD3914], in test [1], the “EC50 log inhib vs normalized response” value is listed as 0.07697. In addition, the pEC50 is 7.11 in test [1] (setting [7]); 7.12 in test [1] (setting [8]); 6.71 in test [2] (setting [9]); 6.71 in test [2] (setting [10]); 7.89 in test [3]; 7.21 with C. parvum.

For `COc1ccc(NC(=O)N2CCCCN3[C@H](C2)[C@H](c2ccc(C#Cc4ccccc4)cc2)[C@@H]3CO)cc1` [BRD4569], the “EC50 log inhib vs normalized response” value in test [1] stood at 3.376. Also, the pEC50 in test [1] (setting [13]) and in test [1] (setting [11]) was 5.47 each time.

Regarding `COc1ccc(NC(=O)N2CCCCN3[C@H](CO)[C@H](c4ccc(C#Cc5ccccc5C#N)cc4)[C@@H]3C2)cc1` [BRD4873], in test [1], the “EC50 log inhib vs normalized response” value is 0.2134. In addition, the figures for the pEC50 in test [1] (setting [12]), in test [1] (setting [8]) and in test [3] were 6.67, 6.67 and 6.58, respectively.

Regarding `COc1ccc(NC(=O)N2C[C@@H](O)[C@@H](O)CN3[C@H](CN(C)C)[C@H](c4ccc(C#Cc5ccccc5)cc4)[C@@H]3C2)cc1` [BRD5018], the “EC50 log inhib vs normalized response” value in test [1] is 0.03927. The pEC50 is 7.41 in test [1] (setting [7]); 7.41 in test [1] (setting [8]); 7.53 in test [2] (setting [9]); 7.54 in test [2] (setting [10]); 7.89 in test [3].

Consider `OC[C@@H]1[C@H](c2ccc(C#Cc3ccccc3)cc2)[C@@H]2CN(c3nc4ccccc4s3)CCCCN12` [BRD5349], for which the “EC50 log inhib vs normalized response” value in test [1] is recorded as 3.944. Moreover, the values for the pEC50 in test [1] (setting [12]) and in test [3] were 5.40 and 5.08, respectively.

For `COc1ccc(NC(=O)N2CCCCN3[C@H](CO)[C@H](c4ccc(C#CC5CC5)cc4)[C@@H]3C2)cc1` [BRD5774], the “EC50 log inhib vs normalized response” value in test [1] amounted to 1.609. In addition, the pEC50 in test [1] (setting [12]) was 5.79; in test [3], 4.91.

Regarding `O=C(Nc1cccc(F)c1)N1CCCCN2[C@H](CO)[C@H](c3ccc(C#Cc4cccnc4)cc3)[C@@H]2C1` [BRD5999], in test [1], the “EC50 log inhib vs normalized response” value is 0.4926. Moreover, the negative logarithm of the EC50 (pEC50) in test [1] (setting [8]) is 6.31.

As to `COc1ccc(NC(=O)N2CCCCN3[C@H](CN4CCN(C)CC4)[C@H](c4ccc(C#Cc5ccccc5)cc4)[C@@H]3C2)cc1` [BRD6479], the “EC50 log inhib vs normalized response” value in test [1] is given as 0.4249. In addition, the pEC50 in test [1] (setting [12]) is 6.37; in test [1] (setting [8]) it was 6.37; in test [3], 6.80.

Consider `COc1ccc(NC(=O)N2CCCCN3[C@H](CO)[C@@H](c4ccc(C#Cc5ccccc5)cc4)[C@H]3C2)cc1` [BRD8194], for which the “EC50 log inhib vs normalized response” value in test [1] amounted to 2.955. Further, in test [1] (setting [11]), the pEC50 is 5.53.

As to `O=C(NC1CCC1)N1CCCCN2[C@H](CO)[C@H](c3ccc(C#Cc4ccccc4)cc3)[C@@H]2C1` [BRD8260], in test [1], the “EC50 log inhib vs normalized response” value was determined as 2.575. The values for the pEC50 in test [1] (setting [12]) and in test [3] were 5.59 and 4.71, respectively.

For the compound `COc1ccc(NC(=O)N2CCCCN3[C@H](CN4CCC4)[C@H](c4ccc(C#Cc5ccccc5)cc4)[C@@H]3C2)cc1` [BRD8493], the “EC50 log inhib vs normalized response” value in test [1] turned out to be 0.4416. Further, the negative logarithm of the EC50 (pEC50) in test [1] (setting [12]) was 6.35; in test [1] (setting [8]), 6.36; in test [3] it was 6.94.

Take `COc1ccc(NC(=O)N2CCCCN3[C@@H](CO)[C@H](c4ccc(C#Cc5ccccn5)cc4)[C@@H]3C2)cc1` [BRD9257]: the “EC50 log inhib vs normalized response” value in test [1] came out at 0.6463. Besides, the pEC50 in test [1] (setting [12]) is 6.19; in test [1] (setting [8]), 6.19; in test [3] it was 6.81.

Take `COc1ccc(NC(=O)N2CCCN3[C@H](CO)[C@H](c4ccc(C#Cc5ccccc5)cc4)[C@@H]3C2)cc1` [BRD9599]: in test [1], the “EC50 log inhib vs normalized response” value is recorded as 1.748. The pEC50 in test [1] (setting [12]) was 5.76; in test [3], 6.07; in the test on C. parvum, 6.60.

`COc1ccc(NC(=O)N2CCCCN3[C@@H](CO)[C@H](c4ccc(C#Cc5ccccc5)cc4)[C@@H]3C2)cc1` [BRD9995]: the “EC50 log inhib vs normalized response” value in test [1] is 0.1187. The pEC50 was 6.92 in test [1] (setting [13]) and 6.93 in test [1] (setting [11]).

For the compound `CCc1nc(N)nc(N)c1-c1ccc(Cl)cc1` [Pyrimethamine, reference compound], the “EC50 log inhib vs normalized response” value in test [1] was 0.2476. Besides, the pEC50 in test [1] (Toxoplasma gondii, ME49-FLuc, 10-point dose-response, two biological replicates, read-out: EC50, T. gondii tachyzoite growth) is 6.61; in test [1] (setting [11]) it was 6.61. The “Ex vivo bradyzoite plaques, normalised to DMSO = 100” value was 2.0 and 0.5 and 1.9 in test [4] (Constant treatment); 115.2 and 93 and 95.5 in test [4] (Washout).

In the case of `Nc1ccc(S(=O)(=O)Nc2ncccn2)cc1` [sulfadiazine, reference compound], in test [5], the “Days (survival time of single mouse)” value is 7 days and 9 days and 29 days and 11 days and 5 days; the “Survival event flag of single mouse (1 or 0)” value is 1 and 0. Moreover, in test [6], the mean survival stood at 10 days.
